# In a melting point compilation (Tetko et al.; mined from patent text by program, amines drawn as free bases though some values may be those of a salt):
row,melting point,SMILES
1,210 to 220 °C,N#Cc1cc(O)c(O)c(C#N)c1CCC(=O)O
2,97 to 99 °C,CCCCCOc1ccc2cc(C(C)C(=O)O)ccc2c1 (stereo unspecified)
3,227 to 228 °C,CC(C)c1cc(C(=O)Nc2ccc(C(=O)O)s2)oc1C(C)C
4,202 to 204 °C,CN(C)c1ccc(CN[C@@H](C(=O)O)[C@H](O)[C@H](Cc2ccccc2)NC(=O)OC(C)(C)C)cc1
5,234 °C,O=S(=O)(c1ccc(O)cc1)c1c(-c2ccccc2)cn2ccccc12
6,253 to 254 °C,CC(C)n1nc(-c2sc(NC(=O)c3ccc(I)cc3)nc2-c2ccccc2)ccc1=O
7,160 to 162 °C,COC(=O)c1c(SC)nn(-c2c(Cl)cc(Cl)cc2Cl)c1N
8,141 to 143 °C,COc1cc2ncnc(N3CCN(C(=O)Nc4ccncc4)CC3)c2cc1OC
9,> 200 °C,Cc1nc(N2CCc3ccc(F)cc3CC2)c([N+](=O)[O-])c(=O)[nH]1
10,194 °C,CCOC(=O)N1CCC(=C2c3ccsc3C=Cn3ccnc32)CC1
11,150 to 152 °C,O=C(O)[C@H](Cc1ccccc1)NS(=O)(=O)c1ccccc1
12,263 to 264 °C,NS(=O)(=O)c1cc(C(=O)O)cc(S)c1Cl
13,153 to 155 °C,CCSc1ccc(/C=C(\NC(=O)c2ccc(OCC(C)C)cc2)C(=O)NCCO)cc1
14,84 to 85 °C,CCCCCCNC(=O)OC1CCN(C(=O)Oc2ccc(Oc3ccc(C)cc3)cc2)CC1
15,172 to 173 °C,CON=C(C#CC(=O)c1ccc(Cl)cc1)C(=O)OC
16,187 to 190 °C,Cc1ccc(C)c(OC(=O)c2c3ccccc3nc3ccccc23)c1
17,179 to 182 °C,O=C(Nc1ccc(Oc2cc(Cl)ncn2)cc1)Nc1ccc(Br)c(C(F)(F)F)c1
18,189 to 191 °C,O=C(C=Cc1cncc(O)c1)NCCCN1CCN(C(c2ccccc2)c2ccccc2)CC1
19,92.1 to 93.9 °C,CCOC(=O)C1=Cc2cc(Cl)cc(I)c2OC1C(F)(F)F (stereo unspecified)

row,melting point,SMILES
1,208 to 210 °C,CC(=O)N1CCN(CCOc2cc(OC(C)C)c3c(Nc4c(Cl)cnc5c4OCO5)ncnc3c2)CC1
2,153 to 155 °C,CCOC(=O)C1CN(c2ccccc2)C(=O)C1=O (stereo unspecified)
3,248 to 249 °C,CN(C)c1cncc(-c2nc(=O)c3ccccc3s2)n1
4,209 to 210 °C,CCc1nc2c(N)nc(C)c(C)c2n1CCCC(=O)N1CCOCC1
5,117 to 119 °C,CCC(CC)Nc1cc(C)nc(Oc2c(C)cc(C)cc2C)c1CN
6,155 to 157 °C,COc1cc(NC2CCN(Cc3ccccc3)CC2)ccc1C(N)=O
7,288 °C,O=C(Nc1ccccc1)c1sc2c([N+](=O)[O-])c(O)c(O)cc2c1Cl
8,145 to 147 °C,O=C(NCC12CC3CC(CC(C3)C1)C2)c1cc(CC[C@H](O)CO)ccc1Cl
9,172 to 174 °C,COc1cc2c(cc1O)C1Cc3c(Cl)cc(OC)c(OCC(=O)O)c3CN1CC2 (stereo unspecified)
10,155 to 159 °C,COC(=O)c1[nH]cnc1CCNC(=O)[C@H](Cc1ccccc1)NC(=O)[C@H](Cc1ccccc1)NC(=O)OC(C)(C)C
11,150 °C,CC(C)(C)OC(=O)N1CCC(=O)N1c1ccccc1
12,144 to 146 °C,CCCC[C@H](NC(=O)[C@@H](NC(=O)OCc1ccccc1)c1ccccc1)C(=O)CSCc1ccco1
13,212 to 214 °C,COc1cc2c(cc1OC(C)=O)C1Cc3ccc(OC)c(OC(C)=O)c3CN1CC2 (stereo unspecified)
14,222 to 223 °C,COc1ccc2oc(S(=O)(=O)c3ccc(=O)[nH]n3)cc2c1
15,282 to 283 °C,COc1cccc(CN2CC(=O)Nc3ncc(-c4ccc(O)cc4)nc32)c1
16,200 to 205 °C,O=C(O)c1c2n(c3cc(N4CCNCC4)c(F)cc3c1=O)C(c1ccccc1)S2 (stereo unspecified)
17,57 to 59 °C,CCOC(=O)CCc1cc(O)ccc1-c1ccc(-c2cccc(C)c2)c(CO)c1
18,112 to 114 °C,CC(C)(C)OC(=O)NC(C(=O)O)c1ccc(O)cc1 (stereo unspecified)
19,134 to 135 °C,CCOC(=O)c1ccc(OCC(O)COc2cccc3oc(C(=O)OCC)cc(=O)c23)cc1 (stereo unspecified)

row,melting point,SMILES
1,196 to 198 °C,Oc1ccc(-c2cc3c(Br)c(O)ccc3o2)cc1
2,194 to 195 °C,CC(C)c1cccc(CCCn2ccnc2)c1NC(=O)CC1c2ccccc2Oc2ccccc21
3,206 to 208 °C,Cc1c(-c2ccccc2)oc2c(C(=O)NCCO)cccc2c1=O
4,193 to 197 °C,O=C(NC1CCN(CCC(O)c2ccc3c(c2)OCCO3)CC1)c1ccccc1 (stereo unspecified)
5,45 °C,O=[N+]([O-])c1cccc(C(O)CO)c1 (racemic)
6,193 to 196 °C,COc1cccc([C@H]2O[C@H](CC(=O)Nc3ccc4oc(C(=O)O)c(OCC(=O)O)c4c3)C(=O)N(CC(C)(C)CO)c3ccc(Cl)cc32)c1OC
7,232 to 234 °C,CCCCc1nc2cc(Cl)cc(C(=O)O)c2n1Cc1ccc(-c2ccccc2-c2nnn[nH]2)cc1
8,179 to 181 °C,COc1ccc2c(c1)Cc1cc(C(C)C(=O)O)ccc1-2 (stereo unspecified)
9,135 to 138 °C,CC1(C)Oc2ccc(C#N)cc2[C@@H](NC(=O)Nc2cccc(CC(=O)O)c2)[C@@H]1O
10,74 to 76 °C,CCOC(=O)CCCNc1cc(OC)c(OC)cc1C(C)=O
11,69 °C,CC(=O)Nc1cc([N+](=O)[O-])ccc1OCCCN(C)C
12,222 to 224 °C,CC(=O)N1CCN=C1c1ccc(NC(=O)C2=Cc3ccccc3OCC2)cc1
13,118 to 120 °C,Clc1ccc(-c2cc(C3CCN(CCc4ccccc4)CC3)no2)cc1
14,116 to 117 °C,O=S(=O)(Nc1cccc(CCOCc2csc(-c3ccc(C(F)(F)F)cn3)n2)c1)C(F)(F)F
15,125 to 126 °C,CCc1cc(C(=O)c2ccccc2Cl)c(NC=C[N+](=O)[O-])s1
16,207 to 209 °C,Sc1ncc(-c2ccccc2)s1
17,174 to 176 °C,CCOC(=O)c1c(SCc2ccc(OC)cc2)nc2c(F)c(F)c(F)cc2c1O
18,285 to 287 °C,Cc1c(Cc2ccccc2)[nH]c2ccccc2c1=O
19,205 to 206 °C,CN(C)C(=O)C(=O)c1c(Cl)n(C)c2ccc(Cl)cc12

# Second part, the compound before the results:
row,SMILES,melting point
1,O=C(NCc1ccc(Cl)cc1)c1cn(CC2CCCO2)c2sc(CN3CCOCC3)cc2c1=O (stereo unspecified),191 to 195 °C
2,Cc1cc(-c2cccc(C3=Nc4ccc(-c5ccc(F)cc5)cc4NC(=O)C3)c2)on1,> 250 °C
3,CCOC(=O)c1c2n(c3cc(N4CCN(C)CC4)c(F)cc3c1=O)CCCC2,163 to 165 °C
4,Brc1cccc(C2Cc3cnc(Nc4ccc(CCNCCN5CCCC5)cc4)nc3-c3ccccc32)c1 (stereo unspecified),83 to 85 °C
5,Cc1ccccc1Cc1nc[nH]c1C,138 to 140 °C
6,O=C(O)c1cnn(CC(F)(F)F)c1,160 to 162 °C
7,O=C1CCCN1CCCNc1cc(C(c2cc(F)ccc2F)S(=O)(=O)c2ccc(Cl)cc2)c(Cl)cn1 (stereo unspecified),78 to 80 °C
8,c1ccc2c(c1)ccn2Nc1ccncn1,81 to 85 °C
9,FC(F)(F)c1ccn(-c2ccnc(Cl)n2)n1,111 to 112 °C
10,CCc1ccc(S(N)(=O)=O)cc1,104 to 108 °C
11,Cc1ccc(S(=O)(=O)N2CCCC(CSc3ccccc3)C2)cc1 (stereo unspecified),66.7 °C
12,CCCCCCCOCCCCCCNCc1c(CO)ccc(O)c1CO,72 to 74 °C
13,Cc1ccc(C(Cn2cncn2)c2ccccc2)cc1 (stereo unspecified),98 to 100 °C
14,CCOc1cc(-c2nc(N)sc2CCC2CCCCC2)c(OC)cc1C,96 to 97 °C
15,NS(=O)(=O)c1cccc(-c2cc(-c3nc(-c4ccc(C(F)(F)F)cc4)cc(C(F)F)n3)ccn2)c1,234 °C
16,CCCCCNc1nc(SC)nc2c(C)n[nH]c12,88 to 90 °C
17,Cc1cc(-c2ccccc2)n2nc(N3CCN(Cc4ccccc4)CC3)c(C#N)c2n1,160 to 164 °C
18,N#Cc1cnn2c1N(C(=O)CN1CCN(Cc3ccccc3C(F)(F)F)CC1)CC=C2c1cccc(C(F)(F)F)c1,169 to 171 °C
19,c1ccc2c(c1)CCc1c-2noc1N1CCNCC1,97 to 99 °C
20,Cc1oc(-c2ccco2)nc1COc1ccc(COc2ncccc2C#N)cc1,135 to 136 °C

row,SMILES,melting point
1,OC(c1cccc(-c2cc3ccccc3[nH]2)c1)c1cc2ccccc2[nH]1 (stereo unspecified),82 to 85 °C
2,Cc1ccc(C2c3c(C)c(-n4cc5cc6c(cc5c4)OCO6)c(C)c(C)c3OC2(C)C)cc1 (stereo unspecified),236 to 242 °C
3,Nc1nc(N)c(-c2ccc(Cl)cc2Cl)c(C=NO)n1,260 to 265 °C
4,O=C1N(Cc2ccc(C(F)(F)F)o2)c2ccccc2C12COc1cc3c(cc12)OCC3 (stereo unspecified),174 to 177 °C
5,C(=C\c1nc(COc2ccc(CCCn3cncn3)cc2)co1)/c1ccccc1,108 to 109 °C
6,CC=C1CCC2C3C(OC(C)=O)CC4CC(OC(C)=O)CCC4(C)C3CCC12C (stereo unspecified),92 to 93 °C
7,CCOCc1nc2c(N)nc3cc(-c4ccc(Cl)c(Cl)c4)cnc3c2n1CC(C)(C)O,144 to 147 °C
8,COc1ccc(-c2ccc3nnn(Cc4ccc5ncccc5c4)c3n2)cc1,144 to 146 °C
9,CCN1C(=O)C(NC(=O)C(F)(F)F)CCc2c1ccc(Nc1ncc(Cl)c(Nc3ccccc3S(=O)(=O)N(C)C)n1)c2OC (stereo unspecified),250 to 251 °C
10,CCOC(=O)N(CCN(C(=O)OCC)C1CCCCC1)C1CCCCC1,108 °C
11,CC(C)(C)c1ccc(Nc2ncc(-c3ccc4ncncc4c3)c3ccccc23)cc1,213 to 214 °C
12,Oc1ccc2c(c1)CCCC(c1ccccc1)=C2c1ccc(OCCCCCCSCc2ccccn2)cc1,127 °C
13,CCc1cc(C(C)(C)C)c(OP2OCC(C)(C)CO2)c(C(C)(C)C)c1CC(=O)O,134 to 136 °C
14,N#CC1(C#N)CCOCC1,110 to 112 °C
15,CCN1c2ncccc2C(=O)Nc2c(C)cc(N3CCCCC3CCO)nc21 (stereo unspecified),234 to 237 °C
16,N#Cc1ccc(Cn2cncn2)cc1-c1ccc(OS(N)(=O)=O)cc1,159 to 162 °C
17,COC(c1cc(-c2ccc(F)cc2)c(-c2ccc(F)cc2)n1C)(C(F)(F)F)C(F)(F)F,108 to 110 °C
18,N#Cc1ccc(C(=O)N2CCC3(CC2)OCCO3)cn1,133 to 135 °C
19,COc1ccc(-c2c(C)c3cc(O)ccc3n2Cc2ccc(OCCN3CCCCC3)cc2)c(OC)c1,85 to 92 °C
